Experimental data taken from patent US20140271667A1, “Methods and Compositions for Neoadjuvant Therapy” (The Wistar Institute of Anatomy and Biology, priority 2013, published 2014).

What was measured:
Akt or ERK = assay: Western blotting, Akt or ERK phosphorylation; format: cell-based, human; conditions: Gamitrinib 5 μM
Method: (§1) Protein lysates were prepared in RIPA buffer containing 150 mM NaCl, 1.0% Triton X-100, 0.5% sodium deoxycholate, 0.1% SDS, 50 mM Tris, pH 8.0, in the presence of EDTA-free protease inhibitor cocktail (Roche) and phosphatase inhibitor cocktail 2 and 3 (Sigma Aldrich). Equal amounts of protein lysates were separated by SDS gel electrophoresis, transferred to PVDF membranes and incubated with primary antibodies of various specificities. Protein bands were detected by chemiluminescence, as described (21).

tumor cells [1] = conditions: previous data (23); cited from earlier work
LN229 spheroids [2] = assay: Tumor cell invasion in 3D organotypic spheroids embedded in collagen; format: cell-based, human; conditions: LN229 spheroids in collagen matrix; Gamitrinib 1.25-2.5 μM; 72 h
Method: (§2) For cell migration experiments using a wound closure assay, confluent monolayers of MRC-5 cells were incubated with vehicle or Gamitrinib (5-10 μM), and wounded using a 10 μl pipette tip. Three micrographs/well were obtained at time=0, 16 and 24 h after wounding, and the percentage of wound closure was normalized to the maximum initial area for each well. For analysis of tumor cell invasion in 3D organotypic spheroids, tumor cells (5×10^4) were seeded onto 96-well plates coated with 1.5% agar (Difco Noble Agar) in PBS, pH 7.4. Spheroids were allowed to form over a 72 h period and then embedded in […] of bovine collagen type I (Organogenesis) in 24-well plates. Spheroids were overlaid with 1 ml of growth medium, treated with various concentrations of Gamitrinib for 72 h, and analyzed for changes in maximum invasion distance and invasion area. Quantification of live vs. dead cells under the various conditions tested was performed by staining the spheroids with calcein-AM (live, bright cluster) and Topro-3 (dead, dark spots) (Invitrogen) for 2 h. Samples were imaged using a Prairie Ultima II 2-photon microscope (Prairie Technologies, Inc, Middleton, Wis.), and stacks of 100 slices were generated in 2 channels. 3-D reconstruction of the labeled spheroids and analysis of cell staining was carried out using ImagePro Plus 3D software (Media Cybernetics, Silver Spring Md.).

PC3 cells [3] = assay: Transwell cell migration; format: cell-based, human; conditions: Gamitrinib 5 μM, 17-AAG 5 μM, CCCP 12.5 μM, 2-DG 25 mM, rapamycin 0.1 μM, 6 h
Method: (§3) Various tumor cell types were treated as indicated in each experiment, suspended in 0.1% BSA/DMEM and seeded (1.6−3.2×10^3 cells/mm2, depending on the cell type) in the upper compartment of […] pore diameter BD transwells (BD). NIH3T3 conditioned medium was placed in the lower compartment as a chemoattractant. After 6-18 h incubations at 37° C., the transwell membranes were recovered and cells on the upper side (non-migratory) were wiped off the surface. Cells on the lower side of the membrane were fixed in methanol, rinsed in water and mounted on glass slides with Vectashield medium containing DAPI (Vector Laboratories). Migrated cells on each membrane were counted by fluorescence microscopy in 5 different fields. For cell invasion assays, transwell membranes were coated with Matrigel and processed as described above.

LN229 spheroids [4] = assay: Spheroid live/dead staining (calcein-AM/Topro-3), 2-photon microscopy; format: cell-based, human
Method: as §2

bone metastatic disease = conditions: orthotopic xenograft models and genetic mouse models; cited from earlier work
Src = assay: Western blotting, Src phosphorylation; format: cell-based, human; conditions: Gamitrinib 5 μM
Method: as §1

PC3 cells [5] = assay: Wound closure assay, tumor cells; format: cell-based, human; conditions: Gamitrinib 5 μM, 16 and 24 h
tumor cells [6] = assay: F-actin staining (rhodamine-phalloidin), confocal microscopy; format: cell-based, human; conditions: Gamitrinib 5 μM; fluorescence microscopy
Method: Tumor cells growing at low confluency (1-2×10^4/well) on optical grade glass coverslips were treated with vehicle or Gamitrinib (5 μM), fixed in 4% formaldehyde for 15 min at 37° C., washed in PBS, pH 7.4, and permeabilized with 0.1% Triton X-100 for 5 min at 22° C. Slides were washed in PBS, pH 7.4, blocked in 1% BSA/PBS for 30 min, incubated with 1:2000 dilution of phalloidin-rhodamine (Molecular Probes) for 30 min, washed in PBS, pH 7.4, and mounted in Fluoromount G medium (Southern Biotech). Slides were analyzed on a Leica TCS SP2 confocal laser microscope with a 100× oil objective.

PC3 cells [7] = assay: Matrigel-coated transwell cell invasion; format: cell-based, human; conditions: Gamitrinib 5 μM, 17-AAG 5 μM, CCCP 12.5 μM, 2-DG 25 mM, 16 h
Method: as §3

LN229 cells = assay: Galactose challenge cell viability; format: cell-based, human; conditions: Gamitrinib 5 μM
Method: Human glioblastoma LN229, prostate adenocarcinoma PC3 and PC3-ML subline, lung adenocarcinoma H1299, H1437, H460 and A549, breast adenocarcinoma MDA-MB-231, melanoma 1205Lu and WM793, or normal NIH3T3 and MRC-5 fibroblasts were obtained from the American Tissue Culture Collection (ATCC), and maintained in culture according to the supplier's specifications. For metabolic stress experiments, cells were incubated in MEM-based media containing glucose, essential and non-essential amino acids and vitamins in identical concentration as DMEM, plus 4 mM L-glutamine, 1 mM sodium pyruvate, 10 mM HEPES, and 10% 10 K dialyzed FBS (Gibco). Three conditions were tested: 25 mM glucose (complete medium), 5 mM glucose or 50% amino acid deprivation compared to DMEM. […]
Tumor cells were plated onto 96-well plates at 3.7×10^3/well and treated with vehicle or Gamitrinib (5 μM). After 24 h, cell viability was assessed with a 3 (4,5-dimethyl-thyazoyl-2-yl)2,5 diphenyltetrazolium bromide (MTT) colorimetric assay (24), or, alternatively, by Trypan blue exclusion and light microscopy. […] In some experiments, tumor cell proliferation was assessed by direct cell counting and light microscopy.

AMPK = assay: Western blotting, AMPK and ACC phosphorylation; format: cell-based, human
Method: as §1

## Gamitrinib
Akt or ERK
  Akt or ERK phosphorylation: not affected
Tumor cells [1]
  O2 consumption in tumor cells: inhibited O2 consumption
LN229 spheroids [2]
  invasive length and invasive areas: nearly complete suppression
  tumor cell invasion in organotypic spheroids: blocked tumor cell invasion
PC3 cells [3]
  tumor cell migration: suppressed
LN229 spheroids [4]
  overall cell viability in a 3-D microenvironment: not affected
Bone metastatic disease
  bone metastatic disease: inhibit bone metastatic disease
Src
  Src phosphorylation on Tyr416: inhibited the phosphorylation
PC3 cells [5]
  tumor cell migration in wound closure assay: inhibited tumor cell migration
Tumor cells [6]
  actin cytoskeletal assembly: suppressed actin cytoskeletal assembly
PC3 cells [7]
  tumor cell invasion: suppressed
LN229 cells; 0% Glc-100% Gal
  tumor cell viability in 100% galactose: nearly complete tumor cell death
LN229 cells; 100% glucose or 50% Glc-50% Gal
  tumor cell viability in glucose or 50% galactose: did not significantly reduce tumor cell viability
AMPK; LN229, Gamitrinib 5 μM, with or without glucose
  AMPK phosphorylation during nutrient deprivation: increased AMPK phosphorylation
AMPK; PC3, Gamitrinib 5 μM time course, metformin 5 mM 6 h, 17-AAG 5 μM time course
  AMPK and ACC phosphorylation: induced early phosphorylation
